In ChEMBL document CHEMBL3044874, “Synthesis and characterization of some heterocyclic schiff bases: potential anticonvulsant agents” (Med Chem Res, 2011):
Activity calls are given as the source filed them. The calls are words filed in the database; no cut-off is given here.

How the values were obtained:
[1] = system: Rattus norvegicus; experiment: Anticonvulsant activity in Rattus norvegicus Wistar (rat) assessed as protection against maximal electroshock-induced seizure at 30 mg/kg, po measured at 0.25 hr; format: functional, organism-based; parameters: dose 30 mg/kg
[2] = system: Mus musculus; experiment: Neurotoxicity against Mus musculus Swiss albino (mouse) at 300 mg/kg, ip measured at 4 hr by rota rod test; format: toxicity, organism-based; parameters: dose 300 mg/kg, route intraperitoneal; details: in vivo
[3] = system: Rattus norvegicus; experiment: Anticonvulsant activity in Rattus norvegicus Wistar (rat) assessed as protection against maximal electroshock-induced seizure at 30 mg/kg, po measured at 4 hr; format: functional, organism-based; parameters: dose 30 mg/kg
[4] = system: Mus musculus; experiment: Anticonvulsant activity in ip dosed Mus musculus Swiss albino (mouse) assessed as protection against pentylenetetrazole-induced seizure at 4 hr; format: functional; details: read-out: MED
[5] = system: Mus musculus; experiment: Neurotoxicity against Mus musculus Swiss albino (mouse) at 300 mg/kg, ip measured at 0.5 hr by rota rod test; format: toxicity, organism-based; parameters: dose 300 mg/kg, route intraperitoneal; details: in vivo
[6] = system: Mus musculus; experiment: Anticonvulsant activity in ip dosed Mus musculus Swiss albino (mouse) assessed as protection against maximal electroshock-induced seizure at 4 hr; format: functional; details: read-out: MED
[7] = system: Mus musculus; experiment: Anticonvulsant activity in ip dosed Mus musculus Swiss albino (mouse) assessed as protection against maximal electroshock-induced seizure at 0.5 hr; format: functional; details: read-out: MED
[8] = system: Rattus norvegicus; experiment: Anticonvulsant activity in Rattus norvegicus Wistar (rat) assessed as protection against maximal electroshock-induced seizure at 30 mg/kg, po measured at 1 hr; format: functional, organism-based; parameters: dose 30 mg/kg
[9] = system: Rattus norvegicus; experiment: Anticonvulsant activity in Rattus norvegicus Wistar (rat) assessed as protection against maximal electroshock-induced seizure at 30 mg/kg, po measured at 2 hr; format: functional, organism-based; parameters: dose 30 mg/kg
[10] = system: Mus musculus; experiment: Anticonvulsant activity in ip dosed Mus musculus Swiss albino (mouse) assessed as protection against strychnine-induced seizure at 4 hr; format: functional; details: read-out: MED
[11] = system: Mus musculus; experiment: Anticonvulsant activity in ip dosed Mus musculus Swiss albino (mouse) assessed as protection against maximal electroshock-induced seizure; format: functional
[12] = Neurotoxicity against ip dosed Mus musculus Swiss albino (mouse) by rota rod test; format: toxicity, organism-based; details: in vivo
[13] = system: Mus musculus; experiment: Anticonvulsant activity in ip dosed Mus musculus Swiss albino (mouse) assessed as protection against pentylenetetrazole-induced seizure at 0.5 hr; format: functional; details: read-out: MED
[14] = system: Mus musculus; experiment: Anticonvulsant activity in ip dosed Mus musculus Swiss albino (mouse) assessed as protection against strychnine-induced seizure at 0.5 hr; format: functional; details: read-out: MED
[15] = system: Rattus norvegicus; experiment: Anticonvulsant activity in Rattus norvegicus Wistar (rat) assessed as protection against maximal electroshock-induced seizure at 30 mg/kg, po measured at 0.5 hr; format: functional, organism-based; parameters: dose 30 mg/kg
[16] = Protection index, ratio TD50 for neurotoxicity to ED50 for protection against maximal electroshock-induced seizure in Mus musculus Swiss albino (mouse); format: toxicity, organism-based; details: in vivo, read-out: Ratio TD50/ED50
[17] = system: Mus musculus; experiment: Anticonvulsant activity in Mus musculus Swiss albino (mouse) assessed as protection against pentylenetetrazole-induced seizure at 300 mg/kg, ip; format: functional, organism-based; parameters: dose 300 mg/kg
[18] = system: Mus musculus; experiment: Anticonvulsant activity in ip dosed Mus musculus Swiss albino (mouse) assessed as protection against strychnine-induced seizure; format: functional
[19] = system: Mus musculus; experiment: Anticonvulsant activity in ip dosed Mus musculus Swiss albino (mouse) assessed as protection against pentylenetetrazole-induced seizure; format: functional
[20] = system: Mus musculus; experiment: Anticonvulsant activity in Mus musculus Swiss albino (mouse) assessed as protection against strychnine-induced seizure at 300 mg/kg, ip measured at 0.5 hr; format: functional, organism-based; parameters: dose 300 mg/kg
[21] = system: Mus musculus; experiment: Anticonvulsant activity in Mus musculus Swiss albino (mouse) assessed as protection against maximal electroshock-induced seizure at 300 mg/kg, ip measured at 0.5 hr; format: functional, organism-based; parameters: dose 300 mg/kg
[22] = system: Mus musculus; experiment: Anticonvulsant activity in Mus musculus Swiss albino (mouse) assessed as protection against maximal electroshock-induced seizure at 300 mg/kg, ip measured at 4 hr; format: functional, organism-based; parameters: dose 300 mg/kg
[23] = system: Mus musculus; experiment: Anticonvulsant activity in Mus musculus Swiss albino (mouse) assessed as protection against strychnine-induced seizure at 300 mg/kg, ip measured at 4 hr; format: functional, organism-based; parameters: dose 300 mg/kg
[24] = system: Mus musculus; experiment: Anticonvulsant activity in Mus musculus Swiss albino (mouse) assessed as protection against maximal electroshock-induced seizure at 300 mg/kg, ip; format: functional, organism-based; parameters: dose 300 mg/kg
[25] = system: Mus musculus; experiment: Anticonvulsant activity in Mus musculus Swiss albino (mouse) assessed as protection against strychnine-induced seizure at 300 mg/kg, ip; format: functional, organism-based; parameters: dose 300 mg/kg
[26] = system: Mus musculus; experiment: Neurotoxicity against ip dosed Mus musculus Swiss albino (mouse) at 0.5 hr by rota rod test; format: toxicity, organism-based; details: in vivo
[27] = system: Mus musculus; experiment: Neurotoxicity against ip dosed Mus musculus Swiss albino (mouse) at 4 hr by rota rod test; format: toxicity, organism-based; details: in vivo

| Compound | Activity [2] | minimal effective dose [4] | Activity [5] | minimal effective dose [7] | minimal effective dose [10] | TD50 [12] | minimal effective dose [13] | minimal effective dose [14] | selectivity ratio [16] | ED50 [19] | Activity [20] | Activity [21] | Activity [22] | Activity [23] | Activity [24] | Activity [25] | MTC [26] | also measured |
| --- | --- | --- | --- | --- | --- | --- | --- | --- | --- | --- | --- | --- | --- | --- | --- | --- | --- | --- |
| O=[N+]([O-])c1ccc(/C=N/Cc2cccnc2)cc1 | Non-toxic | 300 mg/kg | Non-toxic | 100 mg/kg | 100 mg/kg | > 500 mg/kg | 100 mg/kg | 30 mg/kg | > 10 |  |  |  |  |  |  |  |  | Activity [1]: inactive; Activity [3]: inactive; minimal effective dose [6]: 100 mg/kg; Activity [8]: inactive; Activity [9]: inactive; ED50 [11]: 61.4 mg/kg; Activity [15]: inactive; Activity [17]: inactive; ED50 [18]: 22.2 mg/kg |
| c1cncc(CN=C2CCCCC2)c1 | Non-toxic | 30 mg/kg | Non-toxic |  |  | > 500 mg/kg | 30 mg/kg |  | > 10 | 14.2 mg/kg | inactive | inactive | inactive | inactive | inactive | inactive |  |  |
| C(=N\Cc1cccnc1)/c1c[nH]c2ccccc12 |  | 30 mg/kg |  | 300 mg/kg | 100 mg/kg | > 500 mg/kg | 30 mg/kg | 300 mg/kg | > 10 | 6.47 mg/kg |  |  | inactive |  | inactive | inactive | 100 mg/kg | MTC [27]: 100 mg/kg |
| COc1ccc(/C=N/Cc2cccnc2)cc1OC | Non-toxic | 30 mg/kg | Non-toxic | 300 mg/kg |  | > 500 mg/kg | 30 mg/kg |  | > 10 | 11.7 mg/kg | inactive |  | inactive | inactive | inactive | inactive |  |  |
| CC12CCC(C/C1=N/Cc1cccnc1)C2(C)C (stereo not given) | Non-toxic | 100 mg/kg |  |  |  | 176 mg/kg | 30 mg/kg |  | 5.45 | 32.2 mg/kg | inactive | inactive | inactive | inactive | inactive | inactive | 300 mg/kg |  |
